Test results from patent publication US6207411A, “Bacteriocins” (priority 1995, dated 2001).

Key:
[1] = system: Pepsin; experiment: Protease sensitivity assay; conditions: enzyme 50 mg/ml in 0.02N HCl
Description: (§1) The following enzymes were dissolved in sterile distilled H2 O (SDW) to a final concentration of 50 mg/ml: Trypsin (type II, Sigma Chemical Co., Poole, Dorset, England), alpha-chymotrypsin (type II, Sigma), Proteinase K (Sigma), Pronase E (type XIV, Sigma), Catalase (Sigma). Pepsin was dissolved in 0.02N HCl, also to a final concentration of 50 mg/ml. All enzyme solutions were filter sterilised using disposable filters (Rotrand/Red rim 0.2 μm, Schleicher & Schuell). 20 μl aliquots of filtered cell-free bacteriocin solution and 20 μl of each enzyme solution were spotted 1 cm apart on GM17 agar plates and dried for 30 min. All plates were incubated overnight at 30° C. The plates move subsequently overlaid with the indicator organism. […] was evident as a zone of inhibition. Controls included plates with spots of either bacteriocin solution or enzyme solution.

[2] = system: Streptococcus dysgalactiae M; experiment: Frequency of resistance development of a mastitic strain; assay type: cell-based; conditions: prolonged exposure
Source text: As a result of the growing concern over the use of antibiotics for the treatment and prevention of disease in animals the potential of using lacticin 3147 in the prevention of bovine mastitis was investigated. To achieve this the bacteriocin was incorporated into teat seals preparations. These seals are manufactured by Cross Vetpharm (Broomhill Road, Tallaght, Dublin 24. Ireland) and act as a physical barrier in the cow against infection. The bacteriocin provides an additional anti-microbial barrier over the physical one provided by the seal itself. Incorporation of the bacteriocin into the teat seals first required the preparation of the bacteriocin in a highly concentrated and semi-purified form. The anti-microbial effectiveness of lacticin 3147 in the environment of the seal required the addition of either Tween 20 or 80 in concentrations of 2% (FIG. 14A). […] Having successfully prepared effective bacteriocin-containing teat seals a number of animal trials were then performed. These involved exposure of the modified seals to the animal for different time periods after which the seals were removed. […] Other aspects of this study focused on the frequency at which a mastitic strain can develop resistance to lacticin 3147 since this could limit its practical usefulness as an effective antimicrobial under certain conditions. […]

[3] = assay type: physicochemical; conditions: pH 9, up to 100° C., 10 minutes; 100% = unheated at that pH
Description: FIG. 6. Effect of heating at 60° C. to 121° C. for 10 minutes on the stability of lacticin 3147 at pH5, pH7, pH9. 100% activity is the activity at pH 5, 7 and 9 with no heating.
A cell-free bacteriocin was exposed to various pH/temperature treatments. Samples were heated to 60, 70, 80, 90, 100, 110 and 121° C. at pH5, pH7 and pH9 for 10 min. Following treatment, all solutions were rapidly cooled and bacteriocin activity was assayed by the well diffusion method.
Three samples of bacteriocin were brought to a pH of 5, 7 and 9 and aliquots of each were subsequently heated to 60° C., 70° C., 80° C., 90° C., 100° C., 110° C. and 121° C. for 10 minutes. The activity at each pH prior to heat treatment was measured and was taken to be 100% for that pH value. From the graphical representation in FIG. 6, it can be seen that lacticin 3147 is heat-stable, particularly at an acid pH.

[4] = system: L. lactis AM2; experiment: Bacteriocin assayed directly in cheese samples; set-up: species or system Lactococcus lactis
Description: Bacteriocin activity was assayed from cheese samples as follows. Cheese samples were initially macerated in equal volumes of distilled water in a stomacher (Lab-Blender 400) for 15 min and heated to 80° C. for 10 min. Then aliquots of 50 μl were dispensed in wells and bacteriocin activity calculated as the difference in area of the zone of inhibition (in mm2) and the area of the well (as outlined previously).
Since then we have assayed the bacteriocin in these cheeses. In Cheese trial 1 the presence of lacticin 3147 in take test cheese was confirmed (using L. lactis AM2 as the indicator strain) at a level of approximately 1.280 AU/ml which remained constant in the cheese over the 28-week ripening period (FIG. 13A). In contrast, no anti-microbial activity was detected in the control cheese. Similarly, the amount of bacteriocin detected in cheese trial 2 was approximately 1.280 AU/ml which also remained constant over the ripening period (FIG. 13B). Thus the level of bacteriocin observed in the cheese corresponds to the number of NSLABs which occur in the cheese during ripening.

[5] = system: Catalase; experiment: Protease sensitivity assay (catalase); conditions: enzyme 50 mg/ml
Description: as §1

[6] = system: L. lactis subsp. lactis MG1614; experiment: Spontaneous resistance on media containing lacticin 3147; assay type: cell-based, Lactococcus lactis; conditions: MG1614 plated up to 10^8 -10^9 CFU/ml
Description: Plates containing bacteriocin were prepared as follows. A cell-free, sterile bacteriocin solution was obtained from an overnight culture of L. lactis DPC3147 grown in GM17 by first centrifuging at 8000 g (Sorvall RC-5B) for 10 min. The resulting supernatant was then sterilized by filtering with Millipore HVLP filters (0.45 um) and tempered to 45° C. An equal volume was then added to double strength GM17 and the plates were poured. Where needed, streptomycin was added to agar at a concentration of 500 μg/ml.
During initial genetic work with lacticin 3147, it was observed that the bacteriocin-producing property was an easily lost trait. Preliminary experiments were attempted to establish if bacteriocin production by DPC3147 was encoded on a conjugally transmissable piece of DNA. These conjugal matings involved using DPC3147 as the donor strain and the plasmid-free strain, L. lactis subsp. lactis MG1614, which is streptomycin resistant as the recipient. The selection of transconjugants from such matings was achieved using the plasmid-encoded bacteriocin immunity/resistance determinants as a selectable marker. This involved the incorporation of lacticin 3147 into the selective media. […] The incorporation of lacticin 3147 into selective media may thus form the basis for a novel food-grade marker system for use in genetic manipulation of lactococci. […]

[7] = Bacteriocin activity in teat seals; conditions: teat seal without Tween 20 or 80 (2% required)
Description: FIG. 14A. Antimicrobial effectiveness of lacticin 3147 requires the presence of Tween Au/ml) has been added.
TY (Tryptone 2.5 g/L, Yeast Extract 5 g/L, Glucose 10 g/L, b-glycerophosphate 19 g/L, MgSO4.7H2O 0.25 g/L, MnSO4.4H2O 0.05 g/L, pH 6.75) broth was prefiltered (15 filter/liter) with HA (Millipore) filters to remove proteins in the media which would bind to the filters. L. lactis DPC 3147 was then grown overnight in the filtered TY-broth. The culture was centrifuged at 10,000 rpm for 15 minutes and then filtered through HVLP filters (Millipore). The bacteriocin was then bound to HA filters (8 filters/liter) and subsequently harvested from the filters using acetone/5 mM Phosphate-Buffer, pH 7.0 (2:1). The mix was subsequently centrifuged and the acetone removed by evaporation. The resultant bacteriocin preparation was freeze-dried and dissolved in sterile distilled water. This was then assayed as above. To add bacteriocin into the teat seal 17,000 units of the bacteriocin prepared as above was added to the seal in a sterile petri disc. On mixing, the bacteriocin and seal formed as emulsion which was then aseptically transferred to a syringe (Cross Vetpharm).

[8] = system: four cariogenic streptococci; experiment: Sensitivity of oral streptococci; assay type: cell-based; conditions: four cariogenic strains from infected patients
Description: Four cariogenic streptococcal strains isolated from infected patients were grown overnight at 30° C. in Brain Heart Infusion broth. These strains were obtained from Dr. Ger Fitzgerald, University College Cork. The relative sensitivity of each of these strains to the bacteriocin was then determined in comparison to L. lactis HP.

[9] = molecular target: T1, Proteinase K (Parengyodontium album, UniProt P06873); experiment: Protease sensitivity assay; conditions: enzyme 50 mg/ml spotted beside bacteriocin; indicator L. lactis HP
T1 construct: purchased Sigma
Description: (§2) FIGS. 2A, 2B, 2C, 2D, and 2E. Protease Sensitivity Assay. Filtered cell-free bacteriocin solution and enzyme solution (A represents control, no enzyme; B, alpha-chymotrypsin; C, trypsin; D, pronase E and E represents proteinase K) were spotted 1 cm apart on GM17 agar plates and subsequently overlaid with the indicator L. lactis strain HP.
as §1

[10] = molecular target: T2, alpha-chymotrypsin (Bos taurus, UniProt P00766, DEL14-15/DEL147-148); experiment: Protease sensitivity assay; conditions: enzyme 50 mg/ml spotted beside bacteriocin; indicator L. lactis HP
T2 construct: purchased Sigma type II
Description: as §2, §1

[11] = system: Pronase E; experiment: Protease sensitivity assay; conditions: enzyme 50 mg/ml spotted beside bacteriocin; indicator L. lactis HP
Description: as §2, §1

[12] = molecular target: T3, Trypsin (Sus scrofa, UniProt P00761); experiment: Protease sensitivity assay; conditions: enzyme 50 mg/ml spotted beside bacteriocin; indicator L. lactis HP
T3 construct: purchased Sigma Chemical Co., Poole, Dorset, England type II
Description: as §2, §1

[13] = system: Streptococcus dysgalactiae M; experiment: Effectiveness on Streptococcus dysgalactiae M (plate counts); assay type: cell-based; conditions: 10.240 AU/ml, stationary phase cells, 2 hours, 37° C.
Description: FIG. 14B. Effect of adding lacticin 3147 (10.240 AU/ml) to stationary cells of Streptococcus dysgalactiae.
10 μl from a overnight culture was added to 490 μl of sterile 50 mM phosphate-buffer. pH 7.0 500 μl lacticin 3147 (10,000 AU/ml) was then added and plate counts were carried out after 0, 15, 30, 60, 90 and 120 minutes at 37° C. to assess cell viability.

[14] = system: DPC3147; experiment: MIC of pure nisin; assay type: cell-based, Lactococcus lactis; conditions: pure nisin against strain DPC3147
Source text: (§3) As expected, catalase had no effect on the antimicrobial activity of the 3147 bacteriocin thus eliminating the possibility that the antimicrobial activity may be due to hydrogen peroxide. In addition, none of the strains producing lacticin 3147 were capable of fermenting sucrose. This provides additional evidence that this bacteriocin is not nisin, since the genes encoding nisin (nis A) is linked to genes responsible for sucrose catabolism on the nisin-sucrosetransposon. Tn5276 (Horn et. al., 1991). Thus, all those Nip^+ (nisin-producing) strains studied to date are in addition Suc^+ (Sucrose-fermenting).

[15] = system: NCDO496; experiment: MIC of pure nisin; assay type: cell-based, Lactococcus lactis; conditions: pure nisin against strain NCDO496
Source text: as §3

T1 sequence (P06873 106-384): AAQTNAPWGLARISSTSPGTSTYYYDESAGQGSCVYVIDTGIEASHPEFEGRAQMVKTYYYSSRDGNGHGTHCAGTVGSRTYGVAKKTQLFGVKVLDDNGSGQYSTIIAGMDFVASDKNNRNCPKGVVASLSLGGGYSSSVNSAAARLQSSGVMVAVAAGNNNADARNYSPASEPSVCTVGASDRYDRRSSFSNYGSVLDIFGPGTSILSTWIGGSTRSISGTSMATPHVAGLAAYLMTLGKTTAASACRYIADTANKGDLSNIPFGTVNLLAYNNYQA
T3 sequence (P00761 9-231): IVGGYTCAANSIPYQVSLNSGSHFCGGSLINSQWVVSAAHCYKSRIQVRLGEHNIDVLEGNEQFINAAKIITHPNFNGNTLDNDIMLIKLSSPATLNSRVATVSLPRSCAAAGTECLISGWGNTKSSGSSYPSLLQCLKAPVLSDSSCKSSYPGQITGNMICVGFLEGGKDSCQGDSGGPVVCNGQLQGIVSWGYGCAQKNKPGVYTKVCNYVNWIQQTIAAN

Row | Substance | Sensitivity to pepsin [1] | Bacterial cells that developed increased tolerance [2] [%] | Activity maintained after heating [3] | Level of bacteriocin in cheese ([4]; cheese trial 1, constant over the 28-week ripening period) | Level of bacteriocin in cheese ([4]; cheese trial 2, constant over the ripening period) | Effect of catalase on antimicrobial activity [5] | Growth of sensitive cells on media containing lacticin 3147 [6] | Bacteriocin activity in treated seals [7] | Sensitivity relative to L. lactis HP [8] [%] | Sensitivity to proteinase K [9] | Sensitivity to alpha-chymotrypsin [10] | Sensitivity to pronase E [11] | Sensitivity to trypsin [12] | Kill [13] [%] | minimum concentrations (MIC) required for inhibition [14] [µg/mL] | minimum concentrations (MIC) required for inhibition [15] [µg/mL]
1 | lacticin 3147 | not to pepsin | 0.003 | more than 50% | approximately 1.280 AU/ml | approximately 1.280 AU/ml | no effect | failed to grow | negligible bacteriocin activity | 12.5 | sensitive | sensitive | sensitive | sensitive | 99.99 | – | –
2 | nisin | – | – | – | – | – | – | – | – | – | – | – | – | – | – | 100 | 400
